Results taken from BindingDB's records for doi:10.1021/jm500763m (Beijing Institute of Pharmacology & Toxicology, 2014).
Square brackets hold non-standard residues; d marks the D form. Peptide text beside a SMILES is read from it. * marks the point of attachment. X1 = C=CCOC(=O)[C@]12CC[C@@H](C(=C)C)[C@@H]1[C@H]1CC[C@@H]3[C@@]4(C)CC[C@H](OC(=O)CCc5cn(CC(=O)*)nn5)C(C)(C)[C@@H]4CC[C@@]3(C)[C@]1(C)CC2; X8 = C[C@H]1[C@H](C)CC[C@]2(C(=O)O)CC[C@]3(C)C(=CC[C@@H]4[C@@]5(C)CC[C@H](OC(=O)CCc6cn(CC(=O)*)nn6)C(C)(C)[C@@H]5CC[C@]43C)[C@H]12; X7 = C[C@H]1[C@H](C)CC[C@]2(C(=O)OCc3cn(CC(=O)*)nn3)CC[C@]3(C)C(=CC[C@@H]4[C@@]5(C)CC[C@H](O)C(C)(C)[C@@H]5CC[C@]43C)[C@H]12; X10 = CC1(C)CC[C@]2(C(=O)OCc3cn(CC(=O)*)nn3)CC[C@]3(C)C(=CC[C@@H]4[C@@]5(C)CC[C@H](O)C(C)(C)[C@@H]5CC[C@]43C)[C@@H]2C1; X11 = CCCc1cn(CC(=O)*)nn1; βAla = NCCC(=O)O

What was measured:
[1] = Inhibition of HIV1 gp41-induced cell-cell fusion between viral envelope expressing human HL2/3 cells to CD4/CCR5 receptor expressing TZM-bl cells compound preincubated for 1 hr measured after 48 hrs by prime/wash assay
[2] = Inhibition of HIV1 gp41-induced cell-cell fusion between viral envelope expressing human HL2/3 cells to CD4/CCR5 receptor expressing TZM-bl cells after 6 to 8 hrs by luciferase assay
[3] = Inhibition of HIV1 gp41-induced cell-cell fusion between viral envelope expressing human HL2/3 cells to CD4/CCR5 receptor expressing TZM-bl cells compound preincubated for 1 hr followed by wash out measured after 48 hrs by prime/wash assay

Molecule | EC50 [2] [nM] | EC50 [1] [nM] | EC50 [3] [nM]
C[C@H]1[C@H](C)CC[C@]2(C(=O)O)CC[C@]3(C)C(=CC[C@@H]4[C@@]5(C)CC[C@H](O)C(C)(C)[C@@H]5CC[C@]43C)[C@H]12 [3beta-hydroxyurs-12-en-28-oic acid] | > 100000 |  | 
CC1(C)CC[C@]2(C(=O)O)CC[C@]3(C)C(=CC[C@@H]4[C@@]5(C)CC[C@H](O)C(C)(C)[C@@H]5CC[C@]43C)[C@@H]2C1 [Oleanolic acid (OA)(Compound 1)] | > 100000 |  | 
enfuvirtide | 10 | 14 | 542

More lines, main results first:

EC50 [2] [nM] | Molecule | EC50 [1] [nM] | EC50 [3] [nM]
3.9 | C=CCOC(=O)[C@]12CC[C@@H](C(=C)C)[C@@H]1[C@H]1CC[C@@H]3[C@@]4(C)CC[C@H](OC(=O)CCc5cn(CC(=O)NCCCC[C@H](NC(=O)CCNC(=O)[C@H](CC(C)C)NC(=O)[C@H](CC(C)C)NC(=O)[C@H](CCC(=O)O)NC(=O)[C@H](CCC(N)=O)NC(=O)[C@H](CCC(=O)O)NC(=O)[C@H](CC(N)=O)NC(=O)[C@H](CCCCN)NC(=O)[C@H](CCC(=O)O)NC(=O)[C@H](CCC(N)=O)NC(=O)[C@H](CCC(N)=O)NC(=O)[C@H](CC(N)=O)NC(=O)[C@H](CCC(N)=O)NC(=O)[C@H](CO)NC(=O)[C@H](CCC(=O)O)NC(=O)[C@H](CCC(=O)O)NC(=O)[C@@H](NC(=O)[C@H](CC(C)C)NC(=O)[C@H](CO)NC(=O)[C@H](Cc6cnc[nH]6)NC(=O)[C@@H](NC(=O)[C@H](CC(C)C)NC(=O)[C@H](CO)NC(=O)[C@@H](NC(=O)[C@H](Cc6ccc(O)cc6)NC(=O)[C@H](CC(N)=O)NC(=O)[C@H](CC(N)=O)NC(C)=O)[C@@H](C)O)[C@@H](C)CC)[C@@H](C)CC)C(N)=O)nn5)C(C)(C)[C@@H]4CC[C@@]3(C)[C@]1(C)CC2 (Ac-NNYTSLIHSLIEESQNQQEKNEQELL[βAla]K(X1)-NH2) | 13 | 
145 | CC[C@H](C)[C@H](NC(=O)[C@H](CC(C)C)NC(=O)[C@H](CO)NC(=O)[C@H](Cc1cnc[nH]1)NC(=O)[C@@H](NC(=O)[C@H](CC(C)C)NC(=O)[C@H](CO)NC(=O)[C@@H](NC(=O)[C@H](Cc1ccc(O)cc1)NC(=O)[C@H](CC(N)=O)NC(=O)[C@H](CC(N)=O)NC(=O)CCNC(=O)Cn1cc(COC(=O)[C@]23CC[C@@H](C)[C@H](C)[C@H]2C2=CC[C@@H]4[C@@]5(C)CC[C@H](O)C(C)(C)[C@@H]5CC[C@@]4(C)[C@]2(C)CC3)nn1)[C@@H](C)O)[C@@H](C)CC)C(=O)N[C@@H](CCC(=O)O)C(=O)N[C@@H](CCC(=O)O)C(=O)N[C@@H](CO)C(=O)N[C@@H](CCC(N)=O)C(=O)N[C@@H](CC(N)=O)C(=O)N[C@@H](CCC(N)=O)C(=O)N[C@@H](CCC(N)=O)C(=O)N[C@@H](CCC(=O)O)C(=O)N[C@@H](CCCCN)C(=O)N[C@@H](CC(N)=O)C(=O)N[C@@H](CCC(=O)O)C(=O)N[C@@H](CCC(N)=O)C(=O)N[C@@H](CCC(=O)O)C(=O)N[C@@H](CC(C)C)C(=O)N[C@@H](CC(C)C)C(N)=O ({X7-βAla}-NNYTSLIHSLIEESQNQQEKNEQELL-NH2) |  | 
52 | CC[C@H](C)[C@H](NC(=O)[C@H](CC(C)C)NC(=O)[C@H](CO)NC(=O)[C@H](Cc1cnc[nH]1)NC(=O)[C@@H](NC(=O)[C@H](CC(C)C)NC(=O)[C@H](CO)NC(=O)[C@@H](NC(=O)[C@H](Cc1ccc(O)cc1)NC(=O)[C@H](CC(N)=O)NC(=O)[C@H](CC(N)=O)NC(=O)CCNC(=O)Cn1cc(CCC(=O)O[C@H]2CC[C@]3(C)[C@H]4CC=C5[C@@H]6[C@@H](C)[C@H](C)CC[C@]6(C(=O)O)CC[C@@]5(C)[C@]4(C)CC[C@H]3C2(C)C)nn1)[C@@H](C)O)[C@@H](C)CC)C(=O)N[C@@H](CCC(=O)O)C(=O)N[C@@H](CCC(=O)O)C(=O)N[C@@H](CO)C(=O)N[C@@H](CCC(N)=O)C(=O)N[C@@H](CC(N)=O)C(=O)N[C@@H](CCC(N)=O)C(=O)N[C@@H](CCC(N)=O)C(=O)N[C@@H](CCC(=O)O)C(=O)N[C@@H](CCCCN)C(=O)N[C@@H](CC(N)=O)C(=O)N[C@@H](CCC(=O)O)C(=O)N[C@@H](CCC(N)=O)C(=O)N[C@@H](CCC(=O)O)C(=O)N[C@@H](CC(C)C)C(=O)N[C@@H](CC(C)C)C(N)=O ({X8-βAla}-NNYTSLIHSLIEESQNQQEKNEQELL-NH2) |  | 
176 | CC[C@H](C)[C@H](NC(=O)[C@H](CC(C)C)NC(=O)[C@H](CO)NC(=O)[C@H](Cc1cnc[nH]1)NC(=O)[C@@H](NC(=O)[C@H](CC(C)C)NC(=O)[C@H](CO)NC(=O)[C@@H](NC(=O)[C@H](Cc1ccc(O)cc1)NC(=O)[C@H](CC(N)=O)NC(=O)[C@H](CC(N)=O)NC(=O)CCNC(=O)Cn1cc(COC(=O)[C@]23CCC(C)(C)C[C@H]2C2=CC[C@@H]4[C@@]5(C)CC[C@H](O)C(C)(C)[C@@H]5CC[C@@]4(C)[C@]2(C)CC3)nn1)[C@@H](C)O)[C@@H](C)CC)C(=O)N[C@@H](CCC(=O)O)C(=O)N[C@@H](CCC(=O)O)C(=O)N[C@@H](CO)C(=O)N[C@@H](CCC(N)=O)C(=O)N[C@@H](CC(N)=O)C(=O)N[C@@H](CCC(N)=O)C(=O)N[C@@H](CCC(N)=O)C(=O)N[C@@H](CCC(=O)O)C(=O)N[C@@H](CCCCN)C(=O)N[C@@H](CC(N)=O)C(=O)N[C@@H](CCC(=O)O)C(=O)N[C@@H](CCC(N)=O)C(=O)N[C@@H](CCC(=O)O)C(=O)N[C@@H](CC(C)C)C(=O)N[C@@H](CC(C)C)C(N)=O ({X10-βAla}-NNYTSLIHSLIEESQNQQEKNEQELL-NH2) |  | 
3580 | CCCc1cn(CC(=O)NCCC(=O)N[C@@H](CC(N)=O)C(=O)N[C@@H](CC(N)=O)C(=O)N[C@@H](Cc2ccc(O)cc2)C(=O)N[C@H](C(=O)N[C@@H](CO)C(=O)N[C@@H](CC(C)C)C(=O)N[C@H](C(=O)N[C@@H](Cc2cnc[nH]2)C(=O)N[C@@H](CO)C(=O)N[C@@H](CC(C)C)C(=O)N[C@H](C(=O)N[C@@H](CCC(=O)O)C(=O)N[C@@H](CCC(=O)O)C(=O)N[C@@H](CO)C(=O)N[C@@H](CCC(N)=O)C(=O)N[C@@H](CC(N)=O)C(=O)N[C@@H](CCC(N)=O)C(=O)N[C@@H](CCC(N)=O)C(=O)N[C@@H](CCC(=O)O)C(=O)N[C@@H](CCCCN)C(=O)N[C@@H](CC(N)=O)C(=O)N[C@@H](CCC(=O)O)C(=O)N[C@@H](CCC(N)=O)C(=O)N[C@@H](CCC(=O)O)C(=O)N[C@@H](CC(C)C)C(=O)N[C@@H](CC(C)C)C(N)=O)[C@@H](C)CC)[C@@H](C)CC)[C@@H](C)O)nn1 ({X11-βAla}-NNYTSLIHSLIEESQNQQEKNEQELL-NH2) |  | 
